Measurements as given in paper PMC12731105, “Design and Synthesis of New Quinoxaline Analogs to Regenerate Sensory Auditory Hair Cells” (Cells, 2025).
Read-outs that look alike come from different tables or passages of the source.

Experiments:
[1] = system: HT-1080; assay: TACS MTT cell proliferation / metabolic activity assay in HT-1080; format: cell-based, human; conditions: HT-1080, 0.1 to 100 μM
Experimental: (§1) HEI-OC1 cells derived from the mouse OC (kindly provided by Dr. F. Kalinec) were cultured under permissive conditions (33 °C, 10% CO2) as described in [22]. Additionally, we assessed the activity of Qx-derived compounds in the mouse neuroblastoma cell line, Neuro-2A, and the human fibrosarcoma HT-1080 (ATCC, Manassas, VA, USA) following the standard cell culture guidelines provided by the vendor.
(§2) In vitro cell proliferation effects of all ten initial compounds (Figure 1A,B) were tested on HEI-OC1, Neuro-2A and HT-1080 cells by TACS® 3-(4,5-dimethylthiazol-2-yl)-2,5-diphenyltetrazolium bromide (MTT) Cell Proliferation Assay (R&D Systems, Minneapolis, MN, USA, 4890-025-K), following the manufacturer’s protocol. Absorbance was measured with SpectraMax® M Series Multi-Mode Microplate Reader with Soft Max Pro 7.2 GxP Software (Molecular Devices, Sunnyvale, CA, USA), and the average OD in control cells was taken as 100% of viability. Upon selecting the most viable compounds (Qx-294 and Qx-301), we proceeded with in vivo experiments. For zebrafish treatment, animals were incubated for varied times with different concentrations (50, 100, 150, 200, 250, and 300 μg/mL) of Qx-294 or Qx-301 diluted in swimming (E3) media or administered via IP injections. Mice treatment followed the same procedures as described in [18]. Following treatment, animals or tissue samples were incubated in Click-it EdU or Click-it Plus TUNEL kits (Thermo Scientific, Waltham, MA, USA), following the manufacturer’s instructions to label proliferating and apoptotic cells, respectively.

[2] = system: mouse organ of Corti; assay: TUNEL assay in the mouse organ of Corti; format: in vivo; conditions: mice, any treatment group (24, 48, 72 h)
Experimental: (§3) C57BL/6J male and female mice between postnatal day 24 and 30 P-24-30) were randomized into control and experimental groups (9 mice per group per compound), with each experimental group receiving a single intraperitoneal (IP) injection of Qx-294 or Qx-301 at a dose of 300 mg/kg body weight, dissolved in dimethyl sulfoxide (DMSO). Controls consisted of treatment with DMSO alone (vehicle). A total of 90 adult wild-type C57/BL6 mice were used in this study. Based on the analysis, animals were examined at various times following treatment as described below.
In vitro cell proliferation effects of all ten initial compounds (Figure 1A,B) were tested on HEI-OC1, Neuro-2A and HT-1080 cells by TACS® 3-(4,5-dimethylthiazol-2-yl)-2,5-diphenyltetrazolium bromide (MTT) Cell Proliferation Assay (R&D Systems, Minneapolis, MN, USA, 4890-025-K), following the manufacturer’s protocol. Absorbance was measured with SpectraMax® M Series Multi-Mode Microplate Reader with Soft Max Pro 7.2 GxP Software (Molecular Devices, Sunnyvale, CA, USA), and the average OD in control cells was taken as 100% of viability. Upon selecting the most viable compounds (Qx-294 and Qx-301), we proceeded with in vivo experiments. […]

[3] = system: Neuro-2A; assay: TACS MTT cell proliferation / metabolic activity assay in Neuro-2A; format: cell-based, mouse; conditions: 0.1 to 100 μM
Experimental: as §1, §2

[4] = system: zebrafish neuromast cells; assay: TUNEL assay in zebrafish neuromasts; format: in vivo, zebrafish (Danio rerio); conditions: 6 h incubation, any concentration tested
Experimental: Absorbance was measured with SpectraMax® M Series Multi-Mode Microplate Reader with Soft Max Pro 7.2 GxP Software (Molecular Devices, Sunnyvale, CA, USA), and the average OD in control cells was taken as 100% of viability. […] Mice treatment followed the same procedures as described in [18]. Following treatment, animals or tissue samples were incubated in Click-it EdU or Click-it Plus TUNEL kits (Thermo Scientific, Waltham, MA, USA), following the manufacturer’s instructions to label proliferating and apoptotic cells, respectively.

[5] = PAMPA permeability assay; format: in vitro ADME
Experimental: The parallel artificial membrane permeability assay (PAMPA), an artificial membrane that simulates a biological membrane, was used. A 96-well membrane filter-based microtiter plate system with donor and acceptor compartments separated by the membrane was employed. The compounds were dissolved in 5% DMSO in phosphate-buffered saline (PBS) solution with Lucifer yellow, a dye used to assess membrane integrity. The solution was placed in the donor well, and PBS was added to the acceptor well. The membrane was generated by dissolving lecithin in an inert organic solvent and placed onto a hydrophobic PVDF filter.

[6] = system: mouse organ of Corti HCs; assay: M7a immunolabeling and HC counts in the mouse organ of Corti; format: in vivo; conditions: mice, single IP 300 mg/kg; for OHC and IHC numbers vs control, 48–72 h: p < 0.05; for Supernumerary M7a-positive cells vs control, 24 h: 24 h post-treatment; for HC numbers in the apex: apical turn
Experimental: as §3
Cochlear dissection in mice and immunofluorescence experiments on zebrafish neuromasts and mouse cochleae were performed as previously described. The antibody and labeling kits used in this study included Otoferlin (Developmental Studies Hybridoma Bank, Iowa City, IA, USA, HCS-1), GFP (Novus Biologicals, NB100-1614), and rabbit anti-myosin VIIa (M7a) (Thermo Scientific, Waltham, MA, USA, PA1-936). Species-specific Alexa Fluor-conjugated secondary antibodies were used for detection. Phalloidin conjugated to Alexa 488 (Thermo Scientific, Waltham, MA, USA, O7466) and DAPI were used for labeling stereocilia and the nucleus, respectively.
Cell numbers in mouse cochleae or fish, as well as fish neuromast morphologies, were evaluated in 25 zebrafish per drug and treatment group across three experimental runs. For mouse analyses, 18 cochleae (from 9 mice) per treatment and three experimental repetitions were examined. Images were analyzed at 200X magnification, obtained from different neuromasts and cochlear regions (apex, middle, and base). HCs were quantified in the mouse OC by counting M7a-positive cells, with HC identity further confirmed by phalloidin-labeled stereocilia. Apoptosis and cell proliferation events, on the other hand, were quantified by counting TUNEL- and EdU-positive cells, respectively. Counts were obtained from three randomly selected microscopic fields for each cochlear region, covering at least 1200 μm in total. The number of HCs (IHCs and OHCs) is expressed as units per 200 μm. Cell counting was performed in a double-blind and unbiased manner. A laboratory member conducted the experiments, while another person, who was unaware of the treatment groups to which the cochlea belonged, performed the cell counts. IHCs and OHCs were counted on reconstructed confocal stacks using NIH ImageJ v1.8.0 software. The presence of an HC was defined as an intact, spherical nucleus located in the basal half of an M7a-positive cell. The same person who performed the initial counts recounted a select group of cochleae to determine an intra-rater reliability measure. We used intra-class correlations (ICC) to assess the reliability of the data sets. Reliability statistics were calculated in SPSS v22.0. We used an intra-class correlation coefficient of ≥0.7 to measure strong absolute agreement between the two sets of HC counts being compared. Statistical comparisons between animal groups and treatments were performed using Two-Way ANOVA or Kruskal–Wallis test with post hoc Bonferroni correction for multiple comparisons. Values are presented as ± standard deviation (SD) of the mean. Fluorescence incorporation following treatment with FM1-43 was quantified according to [19] using ImageJ. An unpaired T-test was used to compare the means between treatment groups. p < 0.05 was considered significant. Qx treatments were compared to vehicle-only (control) animals.

Structure (SMILES) | Proliferative state across all tested concentrations [1] | Apoptosis (TUNEL) in the OC [2] | Proliferative state across all tested concentrations [3] | Apoptosis (TUNEL) in neuromasts [4] | Papp at 16 h ([5]; 16 h incubation, read-out: Permeability) [×10⁻⁶ cm/s] | OHC and IHC numbers vs control, 48–72 h [6] | Supernumerary M7a-positive cells vs control, 24 h [6] | HC numbers in the apex [6] | Permeability ([5]; 16 h incubation) | Papp at 16 h ([5]; read-out: PAMPA permeability) [×10⁻⁶ cm/s]
c1ccc2nc(N3CCCC3)cnc2c1 [Qx-301, 2-(pyrrolidine)-quinoxaline] | modest yet active proliferative state | no signs of apoptosis | modest yet active proliferative state | no signs of apoptosis | 0.77 ± 0.91 | significant increases in both OHC and IHC numbers | not statistically significant | consistent, significant increase in apical HCs |  | 
c1ccc2nc(N3CCOCC3)cnc2c1 [Qx-294, 2-(morpholine)-quinoxaline] | modest yet active proliferative state | no signs of apoptosis | modest yet active proliferative state | no signs of apoptosis |  | significant increases in both OHC and IHC numbers | not statistically significant | variable, non-significant trend towards more HCs | 3.5 ± 3.0 ×10^−6 cm/s^−1 | ~3.5
